The target in one assay is T1, CjXyl39A; Xyl39A (Cellvibrio japonicus, UniProt B3PD50).
T1 construct: recombinant, produced in E. coli (native in the pull-down)
T1 sequence (B3PD50 24-521): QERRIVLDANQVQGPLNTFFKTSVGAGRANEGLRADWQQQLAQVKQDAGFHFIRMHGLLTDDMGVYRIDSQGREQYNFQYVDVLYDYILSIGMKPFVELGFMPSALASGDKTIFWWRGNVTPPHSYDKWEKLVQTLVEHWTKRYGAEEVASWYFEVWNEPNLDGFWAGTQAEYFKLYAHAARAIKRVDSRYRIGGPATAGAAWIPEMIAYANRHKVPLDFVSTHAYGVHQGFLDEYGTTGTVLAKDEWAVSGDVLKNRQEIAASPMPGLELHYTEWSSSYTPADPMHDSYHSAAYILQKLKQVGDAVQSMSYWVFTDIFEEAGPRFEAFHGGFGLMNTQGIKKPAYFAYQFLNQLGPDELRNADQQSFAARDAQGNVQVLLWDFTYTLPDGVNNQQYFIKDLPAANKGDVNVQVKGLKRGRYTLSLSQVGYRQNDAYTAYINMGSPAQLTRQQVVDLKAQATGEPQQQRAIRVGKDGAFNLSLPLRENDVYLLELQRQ
Put plainly: fluorogenic activity assay on 4MU glycosides. Format: biochemical. Particulars: recombinant enzyme.

For a further assay, the target named is T2, CjCel5B (Cellvibrio japonicus, UniProt B3PCS3).
T2 construct: gene cel5B; recombinant, produced in E. coli; native protein has N-terminal catalytic domain, serine-rich linker and C-terminal domain; borders of construct only in supplement
T2 sequence (B3PCS3 38-570): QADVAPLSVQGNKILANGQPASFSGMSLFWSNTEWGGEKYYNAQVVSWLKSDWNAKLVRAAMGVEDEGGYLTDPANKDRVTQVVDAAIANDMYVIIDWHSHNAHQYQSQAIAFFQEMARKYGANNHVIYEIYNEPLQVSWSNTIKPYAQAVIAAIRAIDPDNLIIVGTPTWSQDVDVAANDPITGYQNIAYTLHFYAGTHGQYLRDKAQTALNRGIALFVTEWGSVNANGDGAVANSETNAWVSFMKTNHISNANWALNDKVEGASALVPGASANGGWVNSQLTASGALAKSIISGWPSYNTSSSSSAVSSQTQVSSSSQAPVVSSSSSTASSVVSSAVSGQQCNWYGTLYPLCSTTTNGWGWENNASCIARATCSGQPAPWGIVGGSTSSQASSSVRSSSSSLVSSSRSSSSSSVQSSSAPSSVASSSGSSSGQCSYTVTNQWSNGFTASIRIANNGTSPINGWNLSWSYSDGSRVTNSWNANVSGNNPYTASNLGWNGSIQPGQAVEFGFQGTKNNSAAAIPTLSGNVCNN
Put plainly: fluorogenic hydrolysis kinetics. Format: biochemical. Particulars: 4MU release.

As to `Cc1cc(=O)oc2cc(O[C@@H]3OC[C@@H](O)[C@H](O)[C@H]3O)ccc12` [4-methylumbelliferyl (4MU) glycoside of β-D-xylose], the activity entry at CjXyl39A; Xyl39A was “showed specific recognition of β-D-xylose over other glycosides”. For `Cc1cc(=O)oc2cc(O[C@@H]3O[C@H](CO)[C@@H](O[C@@H]4O[C@H](CO[C@H]5OC[C@@H](O)[C@H](O)[C@H]5O)[C@@H](O[C@@H]5O[C@H](CO[C@H]6OC[C@@H](O)[C@H](O)[C@H]6O)[C@@H](O[C@@H]6O[C@H](CO[C@H]7OC[C@@H](O)[C@H](O)[C@H]7O)[C@@H](O)[C@H](O)[C@H]6O)[C@H](O)[C@H]5O)[C@H](O)[C@H]4O)[C@H](O)[C@H]3O)ccc12` [4MU-XXXG], at CjCel5B, the hydrolysis kinetics result was “Kinetics for the hydrolysis of 4MU-XXXG and commercially available 4MU-cellotetraose were measured”.

The record behind these values is article PMC10755729, “A Multiplexing Activity-Based Protein-Profiling Platform for Dissection of a Native Bacterial Xyloglucan-Degrading System” (ACS Central Science, 2023).
